Experimental findings from US7348328B2, “MCH antagonists for the treatment of obesity” (Schering Corporation, priority 2001, dated 2008) are described below.

T1 sequence (Q99705 whole entry): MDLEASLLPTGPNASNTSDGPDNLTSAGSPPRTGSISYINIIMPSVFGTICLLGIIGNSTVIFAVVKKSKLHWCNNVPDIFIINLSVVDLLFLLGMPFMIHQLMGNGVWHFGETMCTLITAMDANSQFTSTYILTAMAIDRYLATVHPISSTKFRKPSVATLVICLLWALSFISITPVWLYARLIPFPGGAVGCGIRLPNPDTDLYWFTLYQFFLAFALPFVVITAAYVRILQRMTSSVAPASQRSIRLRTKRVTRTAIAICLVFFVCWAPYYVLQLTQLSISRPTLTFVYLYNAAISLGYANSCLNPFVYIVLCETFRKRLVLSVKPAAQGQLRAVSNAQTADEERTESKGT

The first test concerns the target T1, MCH receptor (Homo sapiens, UniProt Q99705).
T1 construct: expressed in transfected cells; host or cells: CHO cells (membranes)
Put plainly: MCH Receptor Binding Assay. Particulars: Binding Activity; membranes from CHO cells expressing the MCH receptor, [125I]-MCH; read-out: MCH Ki. As for the experimental part: MCH Receptor Binding Assay:
Membranes from CHO cells expressing the MCH receptor were prepared by lysing cells with 5 mM HEPES for 15 min at 4C. Cell lysates were centrifuged ([…], 15 min) and the pellet was resuspended in 5 mM HEPES. For each 96-well plate (Microlite, Dynex Technologies), 1 mg of cell membranes were incubated with 10 mg of wheat germ agglutinin SPA beads (Amersham) for 5 min at 4 C. in a volume of 10 ml of binding buffer (25 mM HEPES, 10 mM MGCl2, 10 mM NaCl, 5 mM MnCl2, 0.1% BSA). The membrane/bead mixture was centrifuged (1500×g, 3.5 min), the supernatant was aspirated, and the pellet was resuspended in 10 ml binding buffer. The centrifugation, aspiration and resuspension were then repeated. […] Nonspecific binding was determined by including 1 μM MCH in the binding reaction. The binding reaction was incubated at room temperature for 2 h. Plates were then analyzed in a TOPCOUNT microplate scintillation counter (Packard). Data was analyzed and Ki values were determined using GraphPad Prim.
On to `N#Cc1cccc([C@]23CC[C@@H](N(CCN4CCN(CC5CC5)CC4)C(=O)Nc4ccc(F)c(C(F)(F)F)c4)[C@H]2C3)c1` [Example 209], for which the Ki was 10 nM. For `O=C(Nc1ccc(F)c(C(F)(F)F)c1)N(CCN1CC[C@@H](O)C1)[C@@H]1CC[C@]2(c3cccc(Br)c3)C[C@H]12` [Example 197], the Ki worked out at 79 nM.

Consider `CC(C)CN1CCN(CCN(C(=O)Nc2ccc(F)c(C(F)(F)F)c2)[C@@H]2CC[C@]3(c4cccc(C#N)c4)C[C@H]23)CC1` [Example 208], for which the Ki was 9 nM.

For `N#Cc1cccc([C@@]23CCC(N(CCN4CC[C@@H](O)C4)C(=O)Nc4ccc(F)c(Cl)c4)[C@@H]2C3)c1` (some centres unmarked) [Example 190], the Ki worked out at 13 nM. Same read-out and setting: the same measure for `N#Cc1cccc([C@@]23CCC(N(CCN4CC[C@@H](O)C4)C(=O)Nc4ccc(F)c(C(F)(F)F)c4)[C@@H]2C3)c1` (some centres unmarked) [Example 199]: 23 nM; for `N#Cc1cccc([C@]23CC[C@@H](N(CCCCN4CCCCC4)C(=O)Nc4ccc(F)c(C(F)(F)F)c4)[C@H]2C3)c1` [Example 227]: 1.6 nM; for `CN1CCN(CCN(C(=O)Nc2ccc(F)c(C(F)(F)F)c2)[C@@H]2CC[C@]3(c4cccc(C#N)c4)C[C@H]23)CC1` [Example 206]: 30 nM. Same read-out and setting: the same measure for `N#Cc1cccc([C@]23CC[C@@H](N(CCN4CC[C@@H](O)C4)C(=O)Nc4ccc(F)c(Cl)c4)[C@H]2C3)c1` [Example 191]: 22 nM; for `N#Cc1cccc([C@]23CC[C@@H](N(CCN4CC[C@@H](O)C4)C(=O)Nc4ccc(F)c(C(F)(F)F)c4)[C@H]2C3)c1` [Example 193]: 7.1 nM. Still for that read-out and setting: the same measure for `CN(C)CCN(C(=O)Nc1ccc(F)c(Cl)c1)[C@@H]1CC[C@]2(c3cccc(C#N)c3)C[C@H]12` [Example 187]: 14 nM; for `N#Cc1cccc([C@]23CC[C@@H](N(CCCCN4CCOCC4)C(=O)Nc4ccc(F)c(C(F)(F)F)c4)[C@H]2C3)c1` [Example 225]: 2.6 nM; for `CCCN1CCN(CCN(C(=O)Nc2ccc(F)c(C(F)(F)F)c2)[C@@H]2CC[C@]3(c4cccc(C#N)c4)C[C@H]23)CC1` [Example 207]: 22 nM. Turning to `N#Cc1cccc([C@]23CC[C@@H](N(CCCCN4CCCC4)C(=O)Nc4ccc(F)c(Cl)c4)[C@H]2C3)c1` [Example 196], the inhibitory constant (Ki) amounted to 3.9 nM.

On to `CN(C)CCCCN(C(=O)Nc1ccc(F)c(Cl)c1)[C@@H]1CC[C@]2(c3cccc(C#N)c3)C[C@H]12` [Example 195], for which the inhibition constant Ki was determined as 10 nM. Regarding `CN1CCN(CCCCN(C(=O)Nc2ccc(F)c(C(F)(F)F)c2)[C@@H]2CC[C@]3(c4cccc(C#N)c4)C[C@H]23)CC1` [Example 226], the Ki was 2.2 nM.

The test is the same for the next values; noted with them: Table 1b, preferred compounds; read-out: MCH R1 Ki.
For `N#Cc1cccc(C2=CCC(N(CCN3CCCC3)C(=O)Nc3ccc(F)c(C(F)(F)F)c3)CC2)c1` (centres unmarked), the Ki was 2.7 nM. Same read-out and setting: under `N#Cc1cccc([C@]23CCC(N(CCN4CC[C@@H](O)C4)C(=O)Nc4ccc(F)c(Cl)c4)[C@H]2C3)c1` (some centres unmarked) stands 13 nM; under `CC(=O)Nc1cccc([C@@]23CC[C@@H](N(CCCN4CCN(C)CC4)C(=O)Nc4ccc(F)c(Cl)c4)CC2C3)c1` (some centres unmarked), 0.9 nM; under `N#Cc1cccc([C@@]23CC[C@@H](N(CCN4C[C@@H](O)[C@@H](O)C4)C(=O)Nc4ccc(F)c(Cl)c4)CC2C3)c1` (some centres unmarked), 18 nM. Consider `CC(C)N(CCN(C(=O)Nc1ccc(F)c(F)c1)C1CC[C@]2(c3cccc(C#N)c3)CC2C1)C(C)C` (some centres unmarked), for which the Ki was 2.8 nM.

`CNCCN(C(=O)Nc1ccc(F)c(Cl)c1)[C@@H]1CC[C@@]2(c3cccc(C#N)c3)CC2C1` (some centres unmarked): the inhibition constant Ki stood at 9.1 nM.

`CN1CCN(CCCCN(C(=O)Nc2ccc(F)c(Cl)c2)[C@@H]2CC[C@]3(c4cccc(C#N)c4)C[C@H]23)CC1`: the Ki stood at 2.2 nM.

`CN1CCN(CCCN(C(=O)Nc2ccc(F)c(Cl)c2)[C@@H]2CC[C@]3(c4cccc(Cl)c4)C[C@H]23)CC1`: the Ki amounted to 15 nM. Turning to `N#Cc1cccc([C@]23CC[C@H](N(CC4CCN(C5CCSC5)CC4)C(=O)Nc4ccc(F)c(Cl)c4)CC2C3)c1` (some centres unmarked), the Ki turned out to be 7.5 nM. Still for that read-out and setting: under `CC(C)N(CCF)CCN(C(=O)Nc1cc(Cl)nc(Cl)c1)[C@@H]1CC[C@@]2(c3cccc(C#N)c3)CC2C1` (some centres unmarked) stands 10.2 nM. `CN1CCN(CCCN(C(=O)Nc2ccc(F)c(Cl)c2)[C@@H]2CC[C@]3(c4cccc(C#N)c4)C[C@@H]3C2)CC1`: the inhibition constant (Ki) amounted to 4.2 nM. Regarding `N#Cc1cccc([C@@]23CC[C@@H](N(CCCN4CC[C@@H](O)C4)C(=O)Nc4ccc(F)c(Cl)c4)CC2C3)c1` (some centres unmarked) [drawing 646], the inhibitory constant (Ki) stood at 3 nM. `N#Cc1cccc([C@]23CC[C@H](N(CC4CCN(CC5CC5)CC4)C(=O)Nc4ccc(F)c(Cl)c4)CC2C3)c1` (some centres unmarked): the Ki was determined as 10 nM. Consider `CCNS(=O)(=O)NC1CCN(CCCN(C(=O)Nc2ccc(F)c(F)c2)[C@@H]2CC[C@@]3(c4cccc(C#N)c4)CC3C2)C1` (some centres unmarked), for which the inhibition constant (Ki) came to 7.1 nM. Same read-out and setting: the same measure for `O=C(Nc1ccc(F)c(Cl)c1)N(CCN1CCCC1)C1CC=C(c2cccc(Cl)c2)CC1` (centres unmarked): 14 nM; for `N#Cc1cccc([C@@]23CC[C@@H](N(CCCN4CC[C@@H](O)C4)C(=O)Nc4cc(F)cc(F)c4)CC2C3)c1` (some centres unmarked): 1.8 nM; for `N#Cc1cccc([C@@]23CC[C@@H](N(CCN4CC[C@@H](O)C4)C(=O)Nc4ccc(F)c(C(F)(F)F)c4)CC2C3)c1` (some centres unmarked) [drawing 655]: 16 nM. Consider `CN1CCN(CCCCN(C(=O)Nc2cc(Cl)nc(Cl)c2)C2CC[C@@]3(c4ccc(C#N)cc4)CC23)CC1` (some centres unmarked), for which the Ki is 2 nM. With `N#Cc1cccc([C@]23CC[C@@H](N(CCN4CC[C@@H](O)C4)C(=O)Nc4ccc(F)c(C(F)(F)F)c4)[C@H]2C3)c1` [drawing 636], the Ki was 11 nM.

For the molecule `CN(C)CCN(C(=O)Nc1ccc(Cl)c(Cl)c1)C1CC=C(c2cccc(C#N)c2)CC1` (centres unmarked), the inhibitory constant (Ki) amounted to 3 nM. Consider `N#Cc1cccc([C@@]23CCC(N(CCN4CC[C@@H](O)C4)C(=O)Nc4cc(Cl)cc(Cl)c4)CC2C3)c1` (some centres unmarked), for which the inhibition constant Ki was determined as 3.5 nM. For `CN1CCN(CCCN(C(=O)Nc2ccc(F)c(C(F)(F)F)c2)[C@@H]2CC[C@@]3(c4ccc(C#N)cc4)CC23)CC1` (some centres unmarked), the inhibition constant Ki amounted to 3 nM. For the molecule `CC(=O)Nc1cccc(C23CC[C@@H](N(CCN4CC[C@@H](O)C4)C(=O)Nc4ccc(F)c(C(F)(F)F)c4)CC2C3)c1` (some centres unmarked), the Ki stood at 4.8 nM. Still for that read-out and setting: under `CNS(=O)(=O)NC1CCN(CCCN(C(=O)Nc2ccc(F)c(Cl)c2)[C@@H]2CC[C@@]3(c4cccc(C#N)c4)CC3C2)C1` (some centres unmarked) stands 4.9 nM.

In the case of `CC(C)N(CCO)CCN(C(=O)Nc1cc(Cl)nc(Cl)c1)C1CC[C@@]2(c3cccc(C#N)c3)CC2C1` (some centres unmarked), the Ki turned out to be 1.6 nM.

As for `CC1(C)[C@H]2[C@@H](CO)N(CCCCN(C(=O)Nc3ccc(F)c(C(F)(F)F)c3)[C@@H]3CC[C@@]4(c5ccc(C#N)cc5)C[C@H]34)C[C@H]21`, the inhibition constant (Ki) worked out at 8 nM. The same measure, in the same setting: under `N#Cc1cccc([C@]23CC[C@@H](N(CCN4CCCCC4)C(=O)Nc4ccc(F)c(Cl)c4)[C@H]2C3)c1` [drawing 671] stands 4.1 nM. For the molecule `CN1CCN(CCCN(C(=O)Nc2ccc(F)c(Cl)c2)[C@@H]2CC[C@]3(c4ccc(OC(F)(F)F)cc4)C[C@H]23)CC1`, the Ki is 13 nM. `N#Cc1cccc([C@@]23CC[C@@H](N(CC4CCN(S(=O)(=O)N5CCOCC5)CC4)C(=O)Nc4ccc(F)c(F)c4)CC2C3)c1` (some centres unmarked): the Ki amounted to 45 nM. In the case of `CS(=O)(=O)N1CCC(CN(C(=O)Nc2ccc(F)c(C(F)(F)F)c2)[C@@H]2CC[C@@]3(c4cccc(C#N)c4)CC3C2)CC1` (some centres unmarked), the Ki was 26 nM. Regarding `N#Cc1cccc(C23CCC(N(CCN4CCCC4)C(=O)Nc4ccc(F)c(Cl)c4)C2C3)c1` (centres unmarked), the inhibition constant (Ki) was 18 nM. On to `N#Cc1cccc([C@@]23CC[C@@H](N(CCCN4CCC4)C(=O)Nc4ccc(F)c(F)c4)CC2C3)c1` (some centres unmarked), for which the inhibition constant Ki turned out to be 3.7 nM. `N#Cc1cccc([C@@]23CC[C@@H](N(CCN4CC[C@@H](O)C4)C(=O)Nc4cc(Cl)cc(Cl)c4)CC2C3)c1` (some centres unmarked): the Ki is 13 nM. For `CC(C)N(CCN(C(=O)Nc1cc(Cl)nc(Cl)c1)[C@@H]1CC[C@@]2(c3cccc(C#N)c3)CC2C1)C(C)CO` (some centres unmarked), the inhibition constant Ki is 1.6 nM. As for `C[S+]([O-])c1cccc(C23CCC(N(CCCN4CCCC4)C(=O)Nc4ccc(Cl)c(Cl)c4)CC2C3)c1` (centres unmarked), the Ki is 20 nM. Turning to `CS(=O)(=O)N1CCC(CN(C(=O)Nc2ccc(F)c(F)c2)[C@@H]2CC[C@@]3(c4cccc(C#N)c4)CC3C2)CC1` (some centres unmarked), the inhibitory constant (Ki) amounted to 5.4 nM. The same measure, in the same setting: the same measure for `N#Cc1cccc([C@@]23CC[C@@H](N(CCCN4CC[C@@H](O)C4)C(=O)Nc4ccc(F)c(F)c4)CC2C3)c1` (some centres unmarked): 1.2 nM; for `CC(=O)NC1CCN(CCCN(C(=O)Nc2ccc(F)c(F)c2)[C@@H]2CC[C@@]3(c4cccc(C#N)c4)CC3C2)C1` (some centres unmarked): 5.8 nM. On to `N#Cc1cccc([C@]23CC[C@@H](N(CCN4CC[C@@H](O)C4)C(=O)Nc4ccc(F)c(C(F)(F)F)c4)[C@H]2C3)c1` [drawing 669], for which the Ki amounted to 7.1 nM.

Consider `N#Cc1cccc([C@@]23CC[C@@H](N(CCCN4CCCC4)C(=O)Nc4ccc(F)c(F)c4)CC2C3)c1` (some centres unmarked), for which the inhibition constant (Ki) was 1.1 nM.

`CC(C)N(CCN(C(=O)Nc1ccsc1)[C@H]1CC[C@]2(c3cccc(C#N)c3)CC2C1)C(C)C` (some centres unmarked): the Ki was found to be 11.2 nM. Regarding `CC(=O)Nc1cccc([C@@]23CC[C@@H](N(CCN4CCCC4)C(=O)Nc4ccc(F)c(C(F)(F)F)c4)CC2C3)c1` (some centres unmarked), the inhibition constant Ki came out at 4.6 nM.

For the molecule `N#Cc1cccc([C@]23CC[C@@H](N(CCCCN4CCCC4)C(=O)Nc4ccc(F)c(Cl)c4)[C@H]2C3)c1` [drawing 675], the Ki came to 3.9 nM. With `O=C(Nc1ccc(F)c(C(F)(F)F)c1)N(CCN1CCCC1)C1CC=C(c2cccc(Cl)c2)CC1` (centres unmarked), the Ki was 12 nM.

Usually Ki stands for the equilibrium dissociation constant of an inhibitor or competing ligand from its target.
